Values of other authors, collected in patent publication US20180346745A1, “WATER-BASED INK COMPOSITION FOR INK JET RECORDING AND COLORING MATERIAL LIQUID” (Seiko Epson Corporation, priority 2017, published 2018).

Conditions: value defined by OECD Test Guideline 107

Row | SMILES | log P (water-octanol partition coefficient)
1 | CCCCCCC(O)CO (centres unmarked) [1,2-octane diol] | 1.32
2 | CCCCCOCC(O)CO (centres unmarked) [3-pentyloxy-1,2-propanediol] | 0.83
3 | CCCCOCCOCCO [butyl diglycol] | 0.56

Now from value to molecule:

Row | log P (water-octanol partition coefficient) | SMILES
4 | 1.14 | CCCCOCC(C)O (centres unmarked) [propylene glycol monobutyl ether]
5 | 0.61 | CCCOCC(C)O (centres unmarked) [propylene glycol monopropyl ether]
